The text below walks through data of patent EP0454060B1, “3-(Mercaptoalkyl)-quinazoline-2,4(1H,3H)-diones, processes for their preparation, and pharmaceutical compositions” (priority 1990, dated 1991).

Each structure is given as a SMILES string.

One assay has as its system Vaccinia Lister. The assay can be described thus: Plaque reduction test on primary HEZ. As to conditions: mean of two experiments.
In assay [1] the test system is SE-spezifischen IgM- und IgG-PBZ. The assay can be described thus: Plaque test after damage of the immune system by cyclophosphamide (immunorestoration). In kind it is in vivo, CBA-Inzuchtmäuse. As to conditions: ZY 150 mg/kg day -1 + 2 mg/kg oral days -2 to +2. The source says:
Der Nachweis von immunrestaurativen Wirkungen erfolgte nach Schädigung des Immunsystems ebenfalls mittels • Plaque-Test zum Nachweis von SE-spezifischen IgM- und IgG-PBZ sowie durch • Rosettentest.
Aus den Werten wird deutlich, daß die Verbindungen der allgemeinen Formel I einen gut nachweisbaren Effekt auf die Effektor-T-Lymphozyten-abhängige verzögerte Uberempfindlichkeit haben. Kontaktdermatitis-Werte ab 120 (≙ 20 % Steigerung gegenüber der Kontrolle) bzw. unter 80 werden als Nachweis eines stimulatorischen bzw. suppressorischen Effektes angesehen. Antikörpertiter-Differenzen von >+1 bzw. <-1 verdeutlichen den stimulatorischen bzw. suppressorischen Effekt der Substanzen auf die humorale Immunantwort. 2. Untersuchungen zur immunstimulierenden Wirkung • 2.1 Plaque-Test zum Nachweis von SE-spezifischen IgM- und IgG-PBZ Zur Prüfung immunstimulierender Effekte wurde u. a. auch der Einfluß von Verbindungen der allgemeinen Formel I auf die humorale Immunantwort an Mäusen des Inzuchtstammes CBA und mittels Hämolyse-Plaque-Test (HPT) untersucht. Diese Technik erlaubt die quantitative und getrennte Erfassung IgM- und IgG-Antikörper produzierender Zellen (= Plaque bildende Zellen; PBZ). Die Immunisierung mit Schaferythrozyten (SE) erfolgte am Tag 0, die Substanzapplikation (Tagesdosis 1.10^-5 mol/kg Körpermasse; peroral) an den Tagen -1 bis +3 (zur Erfassung der IgM-PBZ) bzw. an den Tagen +1 bis +5 (zur Erfassung der IgG-PBZ). • 2.2 Ergebnisse: Durch tägliche und über 5 Tage gehende Gabe von 2,0 mg der Verbindung gemäß Beispiel 1 pro kg Körpermasse konnte die Zahl der IgM-PBZ auf einen Durchschnittswert von 352 % im Vergleich zur Kontrolle (100 %) gesteigert werden. Die gleiche Form der Behandlung führte zu einer Erhöhung der IgG-PBZ auf 497 % (Kontrolle: 100 %). In beiden Fällen erwies sich die Differenz zur Kontrolle im t-Test mit p < 0,001 als signifikant. Es wird deutlich, daß eine über 5 Tage gehende tägliche Behandlung mit der Verbindung gemäß Beispiel 1 bei der CBA-Maus eine hochsignifikante Steigerung SE-spezifischer IgM- und IgG-PBZ hervorruft. • 2.3 Rosettentest (SE-spezifische Rosetten) Nach der BURNET'schen Theorie tragen die Lymphozyten auf ihrer Oberfläche Immunglobulin-Rezeptoren, die gegen ein bestimmtes Antigen gerichtet und durch eine Reaktion mit dem spezifischen Antigen nachweisbar sind. Die Bestimmung der Anzahl an rosettenbildenden Zellen (RBZ) kann als Maß für die Stärke einer anlaufenden Immunreaktion dienen und folgend auch Effekte im Sinne einer Suppression oder Stimulierung zellproliferativer Prozesse wiedergeben. Drei Tage nach der intravenösen Immunisierung mit 2·10^5 Schaferythrozyten (SE) in 0,2 ml physiologischer Kochsalzlösung wurden die Versuchstiere durch Überstrecken getötet, die Milz entnommen und unter Zugabe von Parker-Medium (pH 7,4) durch Müller-Gaze gerieben. Die Arbeiten zur Gewinnung der Zellsuspension wurden im Eiswasserbad (ca 0 bis 4 °C) durchgeführt. In einer Zählkammer nach Neubauer erfolgte die Bestimmung der Zelldichte, und anschließend wurde die für alle Versuchsansätze konstante Zellzahl von 1·10^7 kernhaltigen Zellen (KHZ)/ml Medium eingestellt. 0,9 ml der Milzzellsuspension (1·10^7 KHZ/ml) wurden dann mit 0,1 ml einer 5 %igen gewaschenen Schaferythrozytensuspension versetzt und 24 Stunden bei 4 °C inkubiert. […] 3. Untersuchungen zu immunrestaurativen Effekten 3.1 Der Nachweis der immunrestaurativen Wirksamkeit von Verbindungen der allgemeinen Formel I wurde u. a. dadurch geführt,daß das Immunsystem der Versuchstiere (CBA-Inzuchtmäuse) durch Chemotherapie (Zyklophosphamid, Carageenan, Iloprost) bzw. Bestrahlung geschädigt wurde. Die Prüfung erfolgte u. a. mittels folgender oben erläuterter Techniken: • Plaque-Test zum Nachweis von SE-spezifischen IgM- und IgG-PBZ, • Rosettentest. […]

Assay [2] shares this test system. The assay can be described thus: Haemolysis plaque test (immunostimulation). As to conditions: 2,0 mg/kg daily over 5 days, peroral, p < 0,001. In kind it is in vivo, Maus (Inzuchtstamm CBA). The source says:
Der Nachweis immunstimulierender Effekte wurde weiterhin an der Maus (Inzuchtstamm CBA) und u. a. mit Hilfe folgender Nachweismethoden geführt: • Plaque-Test zum Nachweis von SE-spezifischen IgM- und IgG-PBZ, • Rosettentest.
Aus den Werten wird deutlich, daß die Verbindungen der allgemeinen Formel I einen gut nachweisbaren Effekt auf die Effektor-T-Lymphozyten-abhängige verzögerte Uberempfindlichkeit haben. Kontaktdermatitis-Werte ab 120 (≙ 20 % Steigerung gegenüber der Kontrolle) bzw. unter 80 werden als Nachweis eines stimulatorischen bzw. suppressorischen Effektes angesehen. Antikörpertiter-Differenzen von >+1 bzw. <-1 verdeutlichen den stimulatorischen bzw. suppressorischen Effekt der Substanzen auf die humorale Immunantwort. 2. Untersuchungen zur immunstimulierenden Wirkung • 2.1 Plaque-Test zum Nachweis von SE-spezifischen IgM- und IgG-PBZ Zur Prüfung immunstimulierender Effekte wurde u. a. auch der Einfluß von Verbindungen der allgemeinen Formel I auf die humorale Immunantwort an Mäusen des Inzuchtstammes CBA und mittels Hämolyse-Plaque-Test (HPT) untersucht. Diese Technik erlaubt die quantitative und getrennte Erfassung IgM- und IgG-Antikörper produzierender Zellen (= Plaque bildende Zellen; PBZ). […]

As for `O=c1[nH]c2ccccc2c(=O)n1CCS` [Beispiel 1, 3-(2-Mercaptoethyl)-chinazolin-2,4(1H,3H)-dion], the “Plaquereduktion in % zur Viruskontrolle auf primären HEZ” value is recorded as 96% in the assay with Vaccinia Lister (125 µmol/l); 100% in the assay with Vaccinia Lister (250 µmol/l); 87% with Vaccinia Lister (31,25 µmol/l, 31.25 µM); 92% with Vaccinia Lister (62,5 µmol/l, 62.5 µM). Also, the “IgM-PBZ/10^6” value in assay [1] (test day + 3) is on record as 31,7 ± 26,6 /10^6; in assay [1] (test day + 4) it was 59,8 ± 26,6 /10^6; in assay [1] (test day + 5, p <0,05), 125,2 ± 32,7 /10^6; in assay [1] (test day + 6), 47,8 ± 31,2 /10^6. The “IgG-PBZ/10^6 Milzzellen” value in assay [1] (test day + 6, p <0,05) was 88,3 ± 24,8 /10^6 Milzzellen; in assay [1] (test day + 7, p <0,01) it was 128,3 ± 28,6 /10^6 Milzzellen; in assay [1] (test day + 8), 58,3 ± 43,6 /10^6 Milzzellen. In addition, the “IgG-PBZ (Kontrolle: 100 %)” value in assay [2] (days +1 to +5) was found to be 497%. For the same molecule, in assay [2] (days -1 to +3, average value), the “Zahl der IgM-PBZ im Vergleich zur Kontrolle (100 %)” value worked out at 352%.
